Experimental data: patent US5684003A, “5-HT4 receptor agonists” (Nisshin Flour Milling Co., Ltd., priority 1994, dated 1997)
Read-outs that look alike come from different tables or passages of the source.

Assays:
5-HT4 receptors = target: T1, 5-HT4 receptors (Rattus norvegicus, UniProt Q62758); assay: Relaxation of carbachol-contracted rat oesophageal tunica muscularis mucosae; assay type: cell-based
T1 construct: from tissue; host or cells: rat oesophageal tunica muscularis mucosae
Protocol: The agonistic activity of oxazabicyclo derivatives and Mosapride on 5-HT4 receptors was determined by the procedure mentioned in Naunyn-Schmiedeberg's Arch Pharmacol (1991) 343:439-446.
The rat oesophageal tunica muscularis mucosae were suspended in organ both containing Krebs-Henseleit solution aerated with a mixed gas (95% O2, 5% CO2) and contracted with carbachol (1×10^-6 M). After the contraction was stabilized, the cumulative administration of the compounds was performed to determine the relaxation of the rat oesophagus pre-contracted with carbachol. The concentration (ED50) to cause 50% relaxation of the carbachol-induced contraction was measured. The result is expressed in terms of -log ED50 and shown in the following table in which higher numerical value indicates higher activity.

gastric-emptying = assay: Gastric-emptying promoting action (semi-solid test meal, fasted rats); assay type: in vivo, rat; details: relative to distilled water group (C/D×100)
Protocol: The present compounds were evaluated for the gastrointestinal prokinetic action, employing as an index the gastric-emptying promoting action. Fasted rats were orally given the test compound or distilled water. After 60 minutes, 3 ml of a test meal (a semi-solid food) was given into stomach by means of a probe. After 60 minutes, animals were sacrificed and stomach was excised and weighed. After washing out the gastric content, the stomach was again weighed to calculate the gastric content amount. The results were shown in the following table by calculating the gastric emptying rate (C) from the weight of the test meal given (A) and the weight of the test meal retained in the stomach (B), and expressing in terms of the gastric-emptying promoting rate to the gastric-emptying rate of the distilled water-given group(D).
Gastric-emptying rate(C)=(A-B)/A×100
Gastric-emptying promoting rate=C/D×100

gastric motility = assay: Gastric motility after meal in beagle dogs (force transducer, Motility Index); assay type: in vivo, dog (beagle); details: 60 min after feeding, percentage to MI at 15 minutes before administration
Protocol: The present compounds were investigated for the gastrointestinal motility activity by the following procedure, by which the gastrointestinal prokinetic action was confirmed.
Beagle dogs inserted with a forced transducer at the anterior wall of stomach were used after a convelescence period of more than one month.
Dogs fasted overnight were given a food (375 g of a dog food) and gastric motility after meal was determined. After 60 minutes of the feeding, the test compounds were intravenously injected and the promoting action on gastric motility after meal was determined. The area under contracting wave forms of gastric motility (Motility Index: MI) was calculated and expressed in terms of percentage to the MI at 15 minutes before the administration of the test compound.

5-HT4 receptor = 5-HT4 receptor (Cavia porcellus, UniProt O70528); assay: Increase in contraction height of electrically stimulated longitudinal muscle of isolated guinea pig ileum (LMMP); assay type: cell-based; set-up: key: +: indicates the increase in the contraction height; -: indicates no effect; details: test concentration 10^-7 M
Chain of 5-HT4 receptor (O70528 whole entry): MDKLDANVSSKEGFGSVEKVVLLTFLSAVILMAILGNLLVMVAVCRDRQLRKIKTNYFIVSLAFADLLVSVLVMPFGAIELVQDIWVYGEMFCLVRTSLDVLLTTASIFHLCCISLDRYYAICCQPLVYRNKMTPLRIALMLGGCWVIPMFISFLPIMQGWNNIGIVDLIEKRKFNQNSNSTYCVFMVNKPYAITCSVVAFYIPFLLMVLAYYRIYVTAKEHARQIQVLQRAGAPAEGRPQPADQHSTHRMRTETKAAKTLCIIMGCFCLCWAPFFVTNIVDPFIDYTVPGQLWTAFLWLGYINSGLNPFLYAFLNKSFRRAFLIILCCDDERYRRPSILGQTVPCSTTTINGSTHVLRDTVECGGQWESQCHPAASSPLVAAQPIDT
Description: Ileum was excised from guinea pigs to prepare longitudinal muscle samples with approximately 2 cm length. The sample was suspended in Krebs-Henseleit liquid bath supplied with a mixed gas (95% O2, 5% CO2) and subjected to electrical stimulation (1 msec, 0.1 Hz) to record contraction force isometrically. The test compounds were. dissolved in distilled water or DMSO and tested at a concentration of 10^-7 M (but 10^-6 M for Compound 11). The results are shown by the presence or absence of the increase in the contraction height by electrical stimulation before administration of the compound, wherein the symbol "+" indicates the increase in the contraction height, while "-" indicates no effect.
Whether or not the action of the above compounds is that via activation of 5-HT4 receptors was investigated using as 5-HT4 receptor antagonist, SDZ 205-557 (2-methoxy-4-amino-5-chlorobenzoic acid 2-(diethylamino)ethyl ester) described in Naunyn-Schmiedeberg's Arch Pharmacol (1992) 345:387-393. Thus, the investigation as to whether SDZ 205-557 can antagonize the increase in the contraction height of the above compounds using the longitudinal muscle preparation of the isolated guinea pig ileum can reveal that such increase in the contraction height is the action via activation of 5-HT4 receptors.

5-HT3 receptor = target: T2, 5-HT3 receptor (Rattus norvegicus, UniProt P35563); assay: 5-HT3 receptor antagonist activity: inhibition of 2-Me-5-HT-induced reduction in heart rate in anesthetized rats; assay type: in vivo; details: iv (jugular vein) 5 minutes before 2-Me-5-HT 0.1 mg/kg, read-out: IC50 (the source's name)
T2 construct: from tissue; host or cells: whole anesthetized rat (in vivo); endogenous receptor
T2 sequence (P35563 24-483): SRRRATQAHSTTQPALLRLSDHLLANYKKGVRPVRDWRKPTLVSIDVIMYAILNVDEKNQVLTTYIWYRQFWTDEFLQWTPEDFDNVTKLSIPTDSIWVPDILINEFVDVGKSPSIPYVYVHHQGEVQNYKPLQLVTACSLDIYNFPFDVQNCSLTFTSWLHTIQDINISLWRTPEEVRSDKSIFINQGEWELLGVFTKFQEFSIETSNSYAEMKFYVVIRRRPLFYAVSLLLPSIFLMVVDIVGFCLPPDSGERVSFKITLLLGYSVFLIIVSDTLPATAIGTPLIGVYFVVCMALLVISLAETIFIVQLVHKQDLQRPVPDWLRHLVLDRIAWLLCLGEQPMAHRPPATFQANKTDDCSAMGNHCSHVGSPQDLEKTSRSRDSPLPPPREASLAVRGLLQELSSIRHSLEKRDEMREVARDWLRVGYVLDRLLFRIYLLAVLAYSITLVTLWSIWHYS
Protocol: For the purpose of studying a receptor selectivity of the present compounds, the 5-HT3 receptor antagonist activity was tested in the following manner. Rats were anesthetized with urethane and heart rate was recorded through femoral artery. The 5-HT3 selective agonist, 2-methyl-5-hydroxytryptamine (2-Me-5-HT) was administered at 0.1 mg/kg through carotid arteries and transient reduction in heart rate was recorded. The test. compounds were administered through jugular vein at 5 minutes before the administration of 2-Me-5-HT, inhibitory rate of reduction in heart rate by the administration of 2-Me-5-HT was calculated and IC50 value was calculated from the inhibitory rate.

[1] = Two-week repeated oral toxicological investigation in rats; assay type: in vivo, rat; details: rats (male, female), 2 weeks, dose figure missing ("a dose of mg/kg")
Description: (§1) The compound of Example 5 was repeatedly administered orally to rats (male, female) over the period of 2 weeks to perform a toxicological investigation.

[2] = Reverse mutation test (Ames test)
[3] = Chromosomal aberration test
Micronucleus test = assay: Micronucleus test
Description: as §1

T1 sequence (Q62758 whole entry): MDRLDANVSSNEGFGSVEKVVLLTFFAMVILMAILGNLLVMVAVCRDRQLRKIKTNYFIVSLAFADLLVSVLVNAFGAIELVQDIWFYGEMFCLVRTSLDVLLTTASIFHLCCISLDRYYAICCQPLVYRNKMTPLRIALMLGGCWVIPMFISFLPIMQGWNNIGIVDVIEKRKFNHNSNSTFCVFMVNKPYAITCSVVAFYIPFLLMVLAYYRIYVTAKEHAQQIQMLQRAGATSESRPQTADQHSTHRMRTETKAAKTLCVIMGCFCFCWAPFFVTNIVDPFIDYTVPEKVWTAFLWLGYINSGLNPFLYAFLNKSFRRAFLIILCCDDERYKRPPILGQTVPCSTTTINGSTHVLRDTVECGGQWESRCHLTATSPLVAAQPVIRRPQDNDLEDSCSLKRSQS

Row | SMILES | EC50 (5-HT4 receptors; ED50 = concentration to cause 50% relaxation of contraction by carbachol (1×10^-6 M), cumulative administration, read-out: Activity (-log ED50) (converted)) | Gastric-emptying promoting rate (gastric-emptying; 0.3 mg/kg oral) | Gastric-emptying promoting rate (gastric-emptying; 1 mg/kg oral) | Gastric-emptying promoting rate (gastric-emptying; 3 mg/kg oral) | MI (Motility Index) (gastric motility; 1 mg/kg iv) | LMMP: presence or absence of the increase in the contraction height by electrical stimulation (5-HT4 receptor) | EC50 (5-HT4 receptors) | ED50 (5-HT3 receptor) | Gastric-emptying promoting rate (gastric-emptying; 0.03 mg/kg oral) | Gastric-emptying promoting rate (gastric-emptying; 0.1 mg/kg oral) | MI (Motility Index) (gastric motility; 0.03 mg/kg iv) | MI (Motility Index) (gastric motility; 0.1 mg/kg iv) | MI (Motility Index) (gastric motility; 0.3 mg/kg iv) | toxicological changes [1] | reverse mutation test (Ames test) [2] | mutagenicity ([2]; overall from Ames, chromosomal aberration and micronucleus tests) | chromosomal aberration test [3] | micronucleus test (Micronucleus test)
1 | CCOc1cc(N)c(Cl)cc1C(=O)NCC1CN(Cc2ccc(F)cc2)CCO1 (stereo not shown) [Mosapride, reference compound] | 34.7 µM | 103.5 | 125.3 | 128.1 | 151.0% | – | – | – | – | – | – | – | – | – | – | – | – | –
2 | CCCCN1[C@@H]2COC[C@H]1C[C@@H](NC(=O)c1nn(C(C)C)c3ccccc13)C2 [Example 5, N-[endo-9-(n-Butyl)-3-oxa-9-azabicyclo[3.3.1]non-7-yl]-1-isopropyl-indazole-3-carboxamide] | – | 127.5 | – | – | – | + | 1 µM | 0.0427 mg/kg | 110.7 | 124.2 | 145.8% | 208.2% | 324.9% | no toxicological changes were observed | negative | no mutagenicity was observed | negative | negative
